In ChEMBL document CHEMBL4680246, “Design, synthesis and biological evaluation of novel O-carbamoyl ferulamide derivatives as multi-target-directed ligands for the treatment of Alzheimer's disease” (Eur J Med Chem, 2020):
Active and inactive are the calls of the source. No cut-off for these calls is given here.

Legend:
[1] = tested on: SH-SY5Y; test: Neuroprotective activity against amyloid beta (1 to 42)-induced cytotoxicity in human SH-SY5Y cells assessed as cell viability at 1 uM by MTT assay (reference value: 50.3%); type: functional; details: read-out: Activity
[2] = tested on: SH-SY5Y; test: Cytotoxicity against human SH-SY5Y cells up to 50 uM by MTT assay; type: cell-based
[3] = target: Amyloid-beta precursor protein (Homo sapiens) (UniProt P05067); test: Disaggregation of self-induced amyloid beta (1 to 42) (unknown origin) preformed fibrils at 25 uM measured after 24 hrs by transmission electron microscopic analysis
[4] = target: T1, Amine oxidase [flavin-containing] A (Homo sapiens, UniProt P21397); test: Inhibition of recombinant human MAO-A
T1 sequence (P21397 whole entry): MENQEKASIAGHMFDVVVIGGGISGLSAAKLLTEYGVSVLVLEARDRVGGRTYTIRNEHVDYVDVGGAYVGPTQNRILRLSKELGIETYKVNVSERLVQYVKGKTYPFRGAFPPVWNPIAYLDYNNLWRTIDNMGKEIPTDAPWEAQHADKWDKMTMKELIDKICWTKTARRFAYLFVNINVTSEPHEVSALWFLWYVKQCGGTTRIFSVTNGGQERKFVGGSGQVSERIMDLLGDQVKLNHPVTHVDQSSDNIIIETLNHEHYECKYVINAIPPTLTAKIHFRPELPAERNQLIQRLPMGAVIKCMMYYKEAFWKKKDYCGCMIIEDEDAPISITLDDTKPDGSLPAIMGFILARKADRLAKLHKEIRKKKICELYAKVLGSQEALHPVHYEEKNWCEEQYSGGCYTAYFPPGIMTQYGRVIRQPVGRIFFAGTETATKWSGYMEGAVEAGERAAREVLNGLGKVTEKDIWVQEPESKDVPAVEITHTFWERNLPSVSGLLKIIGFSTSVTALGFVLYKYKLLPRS

[5] = target: Cholinesterase (Homo sapiens, UniProt P06276); test: Inhibition of human serum BuChE assessed as residual activity at IC50 using acetylcholine iodide as substrate measured after dilution by Ellman's method relative to control
[6] = Acute toxicity in Kunming mouse assessed as damage in lung at 50 to 1000 mg/kg measured after 7 days; type: organism-based; details: in vivo, 168 h, dose 50-1000 mg/kg, time 7 day
[7] = Acute toxicity in Kunming mouse assessed as piloerection at 250 to 1000 mg/kg measured after 24 hrs; type: organism-based; details: in vivo, dose 250-1000 mg/kg
[8] = Acute toxicity in Kunming mouse assessed as damage in spleen at 50 to 1000 mg/kg measured after 7 days; type: organism-based; details: in vivo, 168 h, dose 50-1000 mg/kg, time 7 day
[9] = Acute toxicity in Kunming mouse assessed as damage in liver at 50 to 1000 mg/kg measured after 7 days; type: organism-based; details: in vivo, 168 h, dose 50-1000 mg/kg, time 7 day
[10] = Effect on tau protein level in mouse HT22 cells transfected with pRK5-GFP-Tau P301L plasmid assessed as fluorescence intensity at 10 uM by fluorescence microscopy (reference value: 33.6); type: functional, HT-22
[11] = Effect on APP protein level in mouse HT22 cells transfected with pEGFP-N1-APP plasmid assessed as fluorescence intensity at 5 uM by fluorescence microscopy (reference value: 33.2); type: functional, HT-22
[12] = tested on: HT-22; test: Effect on APP protein level in mouse HT22 cells transfected with pEGFP-N1-APP plasmid assessed as reduction in fluorescence intensity by fluorescence microscopy; type: functional, cell-based
[13] = Cytotoxicity against human LO2 cells assessed as cell viability at 50 uM by MTT assay relative to control; type: cell-based, L02; details: read-out: Activity
[14] = Toxicity in Zebrafish assessed as mortality at 3.125 ug/ml relative to control; parameters: species or system Danio rerio; details: in vivo, at 3.125 µg/mL
[15] = Toxicity in Zebrafish assessed as induction of yolk sac absorption delay at 1.04 ug/ml relative to control; parameters: species or system Danio rerio; details: in vivo, at 1.04 µg/mL
[16] = Toxicity in Zebrafish assessed as absence of blood flow at 6.25 ug/ml relative to control; parameters: species or system Danio rerio; details: at 6.25 µg/mL
[17] = Toxicity in Zebrafish assessed as slow blood flow at 6.25 ug/ml relative to control; type: tissue-based, Danio rerio; details: at 6.25 µg/mL
[18] = Toxicity in Zebrafish assessed as small or misshapen jaw at 6.25 ug/ml relative to control; parameters: species or system Danio rerio; details: in vivo, at 6.25 µg/mL
[19] = Toxicity in Zebrafish assessed as small or misshapen eyes at 6.25 ug/ml relative to control; parameters: species or system Danio rerio; details: in vivo, at 6.25 µg/mL
[20] = Toxicity in Zebrafish assessed as induction of yolk sac absorption delay at 6.25 ug/ml relative to control; parameters: species or system Danio rerio; details: in vivo, at 6.25 µg/mL
[21] = Toxicity in Zebrafish assessed as degenerating muscle within the somites at 6.25 ug/ml relative to control; parameters: species or system Danio rerio; details: in vivo, at 6.25 µg/mL
[22] = Toxicity in AlCl3-induced Zebrafish model of Alzheimer's disease assessed as mortality at 5 ug/ml relative to control; parameters: species or system Danio rerio; details: in vivo, at 5 µg/mL
[23] = species: Danio rerio; test: Antialzheimer activity in AlCl3-induced Zebrafish model of Alzheimer's disease assessed as increase in motility distance at […] relative to control; type: functional; details: dose 0.11 µg/ml
[24] = species: Danio rerio; test: Antialzheimer activity in AlCl3-induced Zebrafish model of Alzheimer's disease assessed as increase in motility distance at 0.33 ug/ml relative to control; type: functional; details: dose 0.33 µg/ml
[25] = species: Danio rerio; test: Antialzheimer activity in AlCl3-induced Zebrafish model of Alzheimer's disease assessed as increase in motility distance at 1 ug/ml relative to control; type: functional; details: dose 1 µg/ml
[26] = species: Danio rerio; test: Antialzheimer activity in AlCl3-induced Zebrafish model of Alzheimer's disease assessed as change in motility speed at 0.33 ug/ml (reference value: 1.08 mm/s); type: functional; details: dose 0.33 µg/ml
[27] = species: Danio rerio; test: Protection against amyloid beta (1 to 42)-induced zebrafish model of vascular injury assessed as vascular injury rate at […] (reference value: 73.3%); type: functional; details: dose 0.11 µg/ml
[28] = species: Danio rerio; test: Protection against amyloid beta (1 to 42)-induced zebrafish model of vascular injury assessed as reduction in vascular injury at 1 ug/ml relative to control; type: functional; details: dose 1 µg/ml
[29] = species: Danio rerio; test: Protection against amyloid beta (1 to 42)-induced zebrafish model of vascular injury assessed as reduction in vascular injury at 0.33 ug/ml relative to control; type: functional; details: dose 0.33 µg/ml
[30] = Acute toxicity in Kunming mouse assessed as mortality at 50 to 1000 mg/kg; type: organism-based; details: in vivo, dose 50-1000 mg/kg
[31] = Acute toxicity in Kunming mouse assessed as lethargy at 250 to 1000 mg/kg; type: organism-based; details: in vivo, dose 250-1000 mg/kg
[32] = Effect on spontaneous alteration behavior in mouse assessed as change in total arm entry at 5 to 20 mg/kg by Y-maze test; type: ADME, organism-based; details: in vivo, dose 5-20 mg/kg
[33] = tested on: Mus musculus; test: Improvement in cognitive impairment in scopolamine-induced mouse model of amnesia assessed as change in spontaneous alteration at 20 mg/kg by Y-maze test (reference value: 40.8%); type: functional
[34] = species: Mus musculus; test: Improvement in brain cholinergic activity in scopolamine-induced mouse model of amnesia assessed as increase in ChAT vitality; type: functional, organism-based
[35] = Drug metabolism in rat liver microsomes by HPLC analysis; type: ADME, Microsome
[36] = Drug metabolism in rat intestinal flora by HPLC analysis; type: ADME, tissue-based, Intestine

Amyloid-beta precursor protein (Homo sapiens), sequence (P05067 whole entry): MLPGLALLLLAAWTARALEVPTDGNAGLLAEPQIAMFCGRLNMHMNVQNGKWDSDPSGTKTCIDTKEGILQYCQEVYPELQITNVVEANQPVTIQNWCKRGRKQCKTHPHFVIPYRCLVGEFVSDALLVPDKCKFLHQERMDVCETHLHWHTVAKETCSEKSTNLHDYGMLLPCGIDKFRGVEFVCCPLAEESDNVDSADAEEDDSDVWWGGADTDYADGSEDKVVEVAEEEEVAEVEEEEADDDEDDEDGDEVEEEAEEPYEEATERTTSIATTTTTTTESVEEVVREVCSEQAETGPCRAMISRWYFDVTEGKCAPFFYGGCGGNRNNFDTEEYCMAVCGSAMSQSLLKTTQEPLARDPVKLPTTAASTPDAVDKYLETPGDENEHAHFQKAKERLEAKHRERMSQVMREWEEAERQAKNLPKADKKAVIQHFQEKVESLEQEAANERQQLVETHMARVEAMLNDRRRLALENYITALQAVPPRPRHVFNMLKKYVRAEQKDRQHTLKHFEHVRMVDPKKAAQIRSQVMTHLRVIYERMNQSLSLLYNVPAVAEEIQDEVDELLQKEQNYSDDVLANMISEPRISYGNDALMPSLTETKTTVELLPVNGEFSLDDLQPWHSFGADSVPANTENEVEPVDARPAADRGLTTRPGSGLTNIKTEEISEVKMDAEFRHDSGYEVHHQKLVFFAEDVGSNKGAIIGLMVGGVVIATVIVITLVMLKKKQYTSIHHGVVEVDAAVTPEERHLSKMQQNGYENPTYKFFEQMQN
Cholinesterase, sequence (P06276 whole entry): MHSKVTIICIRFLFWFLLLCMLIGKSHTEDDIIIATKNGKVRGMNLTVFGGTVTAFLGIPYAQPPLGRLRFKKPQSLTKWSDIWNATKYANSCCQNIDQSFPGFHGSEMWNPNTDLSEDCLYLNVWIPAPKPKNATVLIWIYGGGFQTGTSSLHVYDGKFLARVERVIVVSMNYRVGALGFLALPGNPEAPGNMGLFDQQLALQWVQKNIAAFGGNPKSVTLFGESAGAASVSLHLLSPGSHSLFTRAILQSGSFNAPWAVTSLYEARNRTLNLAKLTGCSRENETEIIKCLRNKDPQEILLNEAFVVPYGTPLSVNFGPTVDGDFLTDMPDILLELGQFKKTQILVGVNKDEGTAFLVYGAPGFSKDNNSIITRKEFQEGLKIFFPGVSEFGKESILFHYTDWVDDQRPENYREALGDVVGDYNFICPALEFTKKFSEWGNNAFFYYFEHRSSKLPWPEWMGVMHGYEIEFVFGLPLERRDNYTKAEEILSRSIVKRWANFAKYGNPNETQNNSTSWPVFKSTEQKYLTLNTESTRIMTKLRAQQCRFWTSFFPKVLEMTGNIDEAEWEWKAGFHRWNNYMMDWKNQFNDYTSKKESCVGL

Compound: CCN(C)C(=O)Oc1ccc(/C=C/C(=O)N2CCc3ccccc3C2)cc1OC
- viability at 1 µM [1]: 68.1%
- Activity [2]: Non-Toxic
- Activity [3]: Active
- IC50 [4]: 15.9 µM
- Activity [5]: 48.2%
- Activity [6]: Non-Toxic
- Activity [7]: Non-Toxic
- Activity [8]: Non-Toxic
- Activity [9]: Non-Toxic
- Flu intensity [10]: 18.7
- Flu intensity [11]: 13.6
- Activity [12]: Dose-dependent effect
- viability at 50 µM [13]: 46.9%
- mortality at 3.125 ug/ml [14]: 0%
- Activity [15]: 13.3%
- Activity [16]: 16.7%
- Activity [17]: 16.7%
- Activity [18]: 33.3%
- Activity [19]: 26.7%
- Activity [20]: 100%
- Activity [21]: 36.7%
- mortality at 5 ug/ml [22]: 0%
- Efficacy [23]: 54.9%
- Efficacy [24]: 72.6%
- Efficacy [25]: 85.9%
- Activity [26]: 2.06 millimeter/sec
- Activity [27]: 80%
- Efficacy [28]: 27.3%
- Efficacy [29]: 9%
- Activity [30]: Non-Toxic
- Activity [31]: Toxic
- Activity [32]: Non-Toxic
- Activity [33]: 61.6%
- Activity [34]: Dose-dependent effect
- Drug metabolism [35]: Metabolite_Detected
- Drug metabolism [36]: Metabolite_Detected
